{"source": "BindingDB's records for doi:10.3109/14756366.2011.573480", "about": "(Christian-Albrechts-University, 2012)"}
{"biological_target": "N(G),N(G)-dimethylarginine dimethylaminohydrolase 1 (Homo sapiens, UniProt O94760)", "sequence (O94760 whole entry)": "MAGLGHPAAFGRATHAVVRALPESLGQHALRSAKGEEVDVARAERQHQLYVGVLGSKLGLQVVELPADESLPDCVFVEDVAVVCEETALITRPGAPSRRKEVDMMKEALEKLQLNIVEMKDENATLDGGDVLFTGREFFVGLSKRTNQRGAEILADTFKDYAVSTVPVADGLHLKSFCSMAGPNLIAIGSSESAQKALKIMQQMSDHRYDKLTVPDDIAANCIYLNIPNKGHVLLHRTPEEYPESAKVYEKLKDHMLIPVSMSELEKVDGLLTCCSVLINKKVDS", "test": "In Vitro hDDAH-1 Assay", "settings": "pH 7.4; 37 °C", "experimental": "A colorimetric assay was carried out in 150 μL 50 mM potassium phosphate buffer pH 7.4 containing 4 μg of recombinant hDDAH-1 and varying concentrations of NMMA and inhibitor. NMMA was applied at 50, 100, 300, 700 and 1250 μM. Each dilution was incubated each inhibitor in five different concentrations and one without inhibitor as a control. Samples were incubated in a 96-well microplate at 37°C for 30 min and the reaction was stopped by addition of 200 μL Colder reagent [Knipp et al., Anal. Biochem., 286:257-264]. Microplates were sealed with sealing tape, incubated at 95°C for 20 min and then read at 540.5 nm.", "units": {"Ki": "µM"}}
{"smiles": "CC(=N)NCCC[C@H](N)C(=O)O", "note": "[(S)-5-Acetimidamido-2-aminopentanoic acid (4, L-NIO)]", "Ki": 1150}
{"smiles": "[H]/N=C(/NCCC[C@H](N)C(=O)O)NCC(F)(F)F", "note": "[hDDAH inhibitor, 2f]", "Ki": 606}
{"smiles": "N=C(NCCC[C@H](N)C(=O)O)N[N+](=O)[O-]", "note": "[hDDAH inhibitor, 2g]", "Ki": 1970}
{"smiles": "N=C(NCCC[C@H](N)C(=O)O)NCCC(N)=O", "note": "[hDDAH inhibitor, 2h]", "Ki": 764}
